The results in this text go back to patent EP0223385B1, “8-Azabicyclo[3,2,1]octane and 9-azabicyclo[3,3,1]nonane derivatives” (BEECHAM GROUP PLC, priority 1985, dated 1987).

Counter-ions that a name gives are not always drawn.

This experiment has as its system von Bezold-Jarisch reflex evoked by 5-HT. Nature of the experiment: Antagonism of the von Bezold-Jarisch reflex evoked by 5-HT in the anaesthetised rat. The class given is in vivo. Conditions: iv, anaesthetised male rats, compounds given intravenously, dose reducing the 5-HT-evoked (usually 6µg/kg i.v.) heart rate response to 50% of control, read-out: ED₅₀. The method, then: The compounds were evaluated for antagonism of the von Bezold-Jarisch reflex evoked by 5-HT in the anaesthetised rat according to the following method:
Male rats 250-350g, were anaesthetised with urethane (1.25g/kg intraperitoneally) and blood pressure and heart rate recorded as described by Fozard J.R. et al., J. Cardiovasc. Pharmacol. 2, 229-245 (1980). A submaximal dose of 5-HT (usually 6µg/kg) was given repeatedly by the intravenous route and changes in heart rate quantified. Compounds were given intravenously and the concentration required to reduce the 5 HT-evoked response to 50% of the control response (ED₅₀) was then determined.

Turning to `CN1[C@@H]2CCC[C@H]1C[C@@H](NC(=O)c1nn(C)c3ccccc13)C2` [Compound 2, N-(Endo-9-methyl-9-azabicyclo[3,3,1]non-3-yl)-1-methylindazole-3-carboxamide monohydrochloride], the ED50 amounted to 0.7 µg/kg.
Under `CN1[C@@H]2CC[C@H]1C[C@@H](OC(=O)c1nn(C)c3ccccc13)C2` [Compound 1, 1-Methyl-3-indazolecarboxylic acid (endo-8-methyl-8-azabicyclo[3,2,1]oct-3-yl)ester monohydrochloride] stands 1.4 µg/kg.
